The source of these data is patent US7041785B1, “B1-bradykinin receptor antagonists and use thereof” (Université de Sherbrooke, priority 1996, dated 2006).

The structures appear in SMILES notation. Non-standard residues stand in square brackets, D forms with d. Residues, ends and D or L forms follow the SMILES beside them. Oic = O=C(O)[C@@H]1C[C@@H]2CCCC[C@@H]2N1; Hyp = O=C(O)[C@@H]1C[C@@H](O)CN1; dTic = O=C(O)[C@H]1Cc2ccccc2CN1; 2Thi = N[C@@H](Cc1cccs1)C(=O)O

One assay deals with T1, B2 receptor (Oryctolagus cuniculus, UniProt Q28642).
T1 sequence (Q28642 1-367): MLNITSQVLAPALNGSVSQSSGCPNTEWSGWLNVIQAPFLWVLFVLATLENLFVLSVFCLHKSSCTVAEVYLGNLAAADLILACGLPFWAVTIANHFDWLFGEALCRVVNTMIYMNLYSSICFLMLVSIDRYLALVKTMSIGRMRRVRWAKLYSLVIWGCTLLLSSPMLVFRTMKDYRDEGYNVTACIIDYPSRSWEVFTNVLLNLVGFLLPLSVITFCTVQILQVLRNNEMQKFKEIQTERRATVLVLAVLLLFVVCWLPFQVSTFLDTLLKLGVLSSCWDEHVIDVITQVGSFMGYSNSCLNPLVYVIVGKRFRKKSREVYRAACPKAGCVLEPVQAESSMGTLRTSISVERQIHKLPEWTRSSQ
The note with it: vs BK; captopril 1 μmol/L; Inactive = no detectable antagonistic effect at ≦ 10 μg/ml.

In the next assay the target is T2, human B2 receptor (Homo sapiens, UniProt P30411).
T2 construct: Helical strips of HUV were prepared according to Gobeil et al; from tissue; host or cells: human umbilical vein helical strips
T2 sequence (P30411 1-391): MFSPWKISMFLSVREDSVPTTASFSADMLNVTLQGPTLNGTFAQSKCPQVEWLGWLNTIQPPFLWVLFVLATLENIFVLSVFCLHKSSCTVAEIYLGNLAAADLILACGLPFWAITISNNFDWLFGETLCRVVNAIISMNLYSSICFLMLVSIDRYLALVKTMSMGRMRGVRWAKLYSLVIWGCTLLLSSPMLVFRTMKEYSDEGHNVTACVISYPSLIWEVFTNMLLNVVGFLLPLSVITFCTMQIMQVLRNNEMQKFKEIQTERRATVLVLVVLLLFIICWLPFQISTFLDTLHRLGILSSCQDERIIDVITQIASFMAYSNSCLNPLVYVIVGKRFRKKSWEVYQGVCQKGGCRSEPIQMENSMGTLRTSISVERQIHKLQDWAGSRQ
Description: Human umbilical vein bioassay in presence of Lys(Leu8)desArg9BK, B2 receptor. Type of assay: cell-based. The note with it: vs BK, Lys(Leu8)desArg9BK 1 μmol/L present. The text has this: Tissues were taken from New Zealand white rabbits (1.5–2.5 kg) and Dunken Hartley guinea pigs (250–350 g) of either sex, killed by stunning and exsanguination. Umbilical cords were taken from healthy women 22–40 years old after spontaneous delivery at term. The rabbit jugular vein (RbJV), the guinea pig ileum (GPI), two preparations containing B2 receptors, the rabbit aorta (RbA) (B1 receptor) and the human umbilical vein (HUV), a mixed preparation containing both B1 and B2 receptors^10, were used. Helical strips of RbJV treated with 1 μmol/L of captopril to avoid peptide degradation by the angiotensin-converting enzyme (ACE), alias kininase II were prepared according to Gaudreau et al.^11 Helical strips of RbA devoid of endothelium were prepared according to Furchgott and Bhadrakom^12. Longitudinal segments of GPI were prepared with the procedure described by Rang^13. Helical strips of HUV were prepared according to Gobeil et al.^10. The tissues were suspended in 10-ml organ baths containing warm (37EC), oxygenated (95% O2–5% CO2) Krebs solution of the following composition in mmol/L; NaCl: 118.1; KCl: 4.7; CaCl26H2O: 2.5; KH2PO4: 1.2; MgSO47H2O: 1.18; NaHCO3: 25.0 and D-Glucose: 5.5. The RbA and the HUV were stretched with an initial tension of 2 g, whereas the RbJV and the GPI were loaded with 0.5 g. Changes of tension produced by the various agents were measured with Grass isometric transducers (model FT 03C, Grass Instrument Co., Quincy, Mass.). […] Before testing the drugs, the tissues were allowed to equilibrate for 60–120 min during which time the tissues were repeatedly washed and the tension readjusted every 15 min.
At the beginning of each experiment, a submaximal dose of bradykinin (BK) (9 nmol/L), was applied repeatedly on the RbJV, the GPI or the HUV to ensure that tissues responded with stable contractions. […] A similar protocol was used for the HUV.
Repeated applications of a singl and double concentration of BK (on RbJV, GPI and HUV) and of desArg^9BK (RbA and HUV) were made in the absence and in presence of the various peptides to evaluate their apparent affinities as antagonists, in terms of pA2 (-log10 of the molar concentration of antagonist that reduces the effect of a double concentration of agonist to that of a single one)^14. The antagonists were applied 10 min before measuring the myotropic effects of either BK (the B2 receptor agonist) or desArg^9BK (the B1 receptor agonist). […] All kinin antagonists were initially applied to tissues at concentration of 10 μg/mL to measure their potential agonistic activities (α^E) in comparison with BK (in the B2 receptor preparations) or desArg^9BK (in the B1 receptor preparations).

The next assay concerns the target T3, human B1 receptor (Homo sapiens, UniProt P46663).
T3 sequence (P46663 1-353): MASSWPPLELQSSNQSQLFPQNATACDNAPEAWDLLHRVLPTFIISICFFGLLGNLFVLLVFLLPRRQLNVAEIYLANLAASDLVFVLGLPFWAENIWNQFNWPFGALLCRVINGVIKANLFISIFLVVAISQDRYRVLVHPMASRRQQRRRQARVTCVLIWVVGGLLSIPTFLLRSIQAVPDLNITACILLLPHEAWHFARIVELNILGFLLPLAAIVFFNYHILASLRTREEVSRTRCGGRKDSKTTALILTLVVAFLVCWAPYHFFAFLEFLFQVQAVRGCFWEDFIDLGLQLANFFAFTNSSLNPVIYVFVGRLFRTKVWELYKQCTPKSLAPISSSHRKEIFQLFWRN
Nature of the assay: cell-based. The note with it: HOE140 400 nmol/L present; for Kb: Human umbilical vein B1 receptor pA2, vs desArg9BK. The procedure, abridged: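 Isolated rabbit jugular vein (captopril 1 μmol/L), guinea pig ileum, endothelium-free rabbit aorta and human umbilical vein, in Krebs at 37 °C, with isometric tension recorded. Agonism was tested at 10 μg/mL.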

For the compound `CC(C)C[C@H](NC(=O)[C@H]1Cc2ccccc2CN1C(=O)[C@H](CO)NC(=O)[C@H](Cc1ccccc1)NC(=O)CNC(=O)[C@@H]1CCCN1C(=O)[C@@H]1CCCN1C(=O)[C@@H](N)CCCNC(=N)N)C(=O)O` [Compound 8, (D-Tic^7, Leu^8)desArg^9BK] (H-RPPGFS[dTic]L-OH; N-terminus and C-terminus assumed), the “Rb.J.V. pA2” value at B2 receptor was “Inactive”. In addition, the “Human umbilical vein B2 receptor pA2” value at human B2 receptor is “Inactive”. Moreover, the Kb on human B1 receptor is 2750 nM.

Consider `N=C(N)NCCC[C@@H](N)C(=O)N[C@@H](CCCNC(=N)N)C(=O)N1CCC[C@H]1C(=O)N1C[C@H](O)C[C@H]1C(=O)NCC(=O)N[C@@H](Cc1cccs1)C(=O)N[C@@H](CO)C(=O)N1Cc2ccccc2C[C@@H]1C(=O)N1[C@H](C(=O)O)C[C@@H]2CCCC[C@@H]21` [Compound 31, D-Arg(Hyp^3, Thi^5, D-Tic^7, Oic^8)desArg^9BK, reference compound] (H-[dR]RP[Hyp]G[2Thi]S[dTic][Oic]-OH; N-terminus and C-terminus assumed), for which the “Human umbilical vein B2 receptor pA2” value at human B2 receptor is on record as “Inactive”. The compound also showed a Kb at human B1 receptor of 51.3 nM. The “Human umbilical vein B1 receptor pA2” value on human B1 receptor (vs desArg9BK) was 7.29.
